Literature values as cited in patent publication US20170369677A1, “MATERIALS FREE OF ENDOCRINE DISRUPTIVE ACTIVITY” (CertiChem, Inc., priority 2006, published 2017).
Like-named read-outs stand apart in the source and are kept apart here.

What was measured:
[1] = for Carcinogenic or Other Toxic Effects: common pigments used in plastic formulations, Table P-3
[2] = recommended daily dietary allowance for these antioxidants
[3] = statement in words
[4] = tested on: snails, fish, frogs, and rodents
ER = details: statement in words

Row | Molecule | ADI [2] [mg/kg] | estrogenic or androgenic activity [3] | other results
1 | [C-]#N.[C-]#N.[C-]#N.[C-]#N.[C-]#N.[C-]#N.[Fe+2].[Fe+3].[NH4+] [Ferric amonimum, ferric amonimum ferrocyanide] |  |  | Carcinogenic or Other Toxic Effects [1]: Yes
2 | CC(C)(C)c1cc(O)ccc1O [TBHQ, Tert-Butylhydroquinone] | 0 to 0.2 |  | 
3 | Tocopherols | 0.15 to 2 |  | 
4 | C=C [Ethylene] |  | no known estrogenic activity or other deleterious effects | 
5 | CC(C)(c1ccc(O)cc1)c1ccc(O)cc1 [Bisphenol A] |  | deleterious estrogenic activity | dose at which deleterious developmental changes have been reported [4]: 0.5 to 2 µg/kg/day; dose at which deleterious developmental changes have been reported ([4]; listed as bisphenol A): 0.5 to 2 µg/kg/day; levels in human umbilical cords: 0.2 to 2 µg/kg
6 | Cc1cc(C(C)(C)C)c(O)c(C(C)(C)C)c1 [BHT, Butylated hydroxytoulene] | 0 to 0.125 | has estrogenic activity | 
7 | C[C@]12CCC(=O)C[C@@H]1CC[C@@H]1[C@@H]2CC[C@]2(C)[C@@H](O)CC[C@@H]12 [DHT, 5a-dihydrotestosterone, reference compound] |  | strong androgen | 
8 | C[C@]12CC[C@@H]3c4ccc(O)cc4CC[C@H]3[C@@H]1CC[C@@H]2O [17β-estradiol (E2), 17β-estradiol, reference compound] |  | strong estrogen | 
9 | [O]=[Mo](=[O])([O-])[O-].[Pb+2] [Lead molybdate] |  |  | Carcinogenic or Other Toxic Effects [1]: Yes
10 | O=C(O)c1ccc(C(=O)O)cc1 [Terephthalic, terephthalic acid] |  | deleterious estrogenic activity | 
11 | CC(C)(C)c1cc(Cc2cc(C(C)(C)C)c(O)c(C(C)(C)C)c2)cc(C(C)(C)C)c1O [4,4′-methylenebis (2,6-di-t-butylphenol)] |  |  | ER binding activity observed (ER): lack of binding activity
12 | CCCOC(=O)c1cc(O)c(O)c(O)c1 [Propyl gallate] | 0 to 2.5 |  | 
13 | C=CCl [Vinylchloride] |  |  | toxic effects stated in text ([1]; statement in words): other toxic effects
14 | COc1ccc(O)c(C(C)(C)C)c1 [BHA, Butylated hydroxyanisole] | 0 to 0.5 |  | 
15 | CC(=O)[C@H]1CC[C@H]2[C@@H]3CCC4=CC(=O)CC[C@]4(C)[C@H]3CC[C@]12C [progesterone] |  | androgenic, but no known estrogenic, activity | 
16 | CC(C)CCC[C@@H](C)[C@H]1CC[C@H]2[C@@H]3CC=C4C[C@@H](O)CC[C@]4(C)[C@H]3CC[C@]12C [Cholesterol] |  | little or no known estrogenic or androgenic activity | 
